Laboratory results as given in ChEMBL document CHEMBL5291721, “A preclinical secondary pharmacology resource illuminates target-adverse drug reaction associations of marketed drugs” (Nat Commun, 2023).

How the values were obtained:
Mu-type opioid receptor = Mu-type opioid receptor (Homo sapiens, UniProt P35372); assay: biochemical; format: functional
[1] = biological target: T1, Alpha-2A adrenergic receptor (Homo sapiens, UniProt P08913)
T1 sequence (P08913 whole entry): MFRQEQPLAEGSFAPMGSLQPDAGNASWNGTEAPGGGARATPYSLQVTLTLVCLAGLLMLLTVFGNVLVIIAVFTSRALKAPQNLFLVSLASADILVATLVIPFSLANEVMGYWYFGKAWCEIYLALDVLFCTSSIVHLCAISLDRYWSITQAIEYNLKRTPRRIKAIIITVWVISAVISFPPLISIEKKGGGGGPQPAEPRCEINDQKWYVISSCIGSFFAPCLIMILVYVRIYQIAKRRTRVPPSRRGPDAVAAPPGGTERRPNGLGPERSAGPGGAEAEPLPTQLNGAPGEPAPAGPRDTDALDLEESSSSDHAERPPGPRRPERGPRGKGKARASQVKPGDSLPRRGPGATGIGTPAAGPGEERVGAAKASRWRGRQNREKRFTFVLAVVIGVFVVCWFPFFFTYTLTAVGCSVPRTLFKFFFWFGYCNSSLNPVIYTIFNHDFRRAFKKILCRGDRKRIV

[2] = biological target: T2, Gamma-aminobutyric acid receptor subunit alpha-1/alpha-2/beta-2/gamma-2 (Homo sapiens, UniProt P14867+P18507+P47869+P47870); format: functional, cell-based
Estrogen receptor [3] = biological target: T3, Estrogen receptor (Homo sapiens, UniProt P03372); format: functional
T3 sequence (P03372 whole entry): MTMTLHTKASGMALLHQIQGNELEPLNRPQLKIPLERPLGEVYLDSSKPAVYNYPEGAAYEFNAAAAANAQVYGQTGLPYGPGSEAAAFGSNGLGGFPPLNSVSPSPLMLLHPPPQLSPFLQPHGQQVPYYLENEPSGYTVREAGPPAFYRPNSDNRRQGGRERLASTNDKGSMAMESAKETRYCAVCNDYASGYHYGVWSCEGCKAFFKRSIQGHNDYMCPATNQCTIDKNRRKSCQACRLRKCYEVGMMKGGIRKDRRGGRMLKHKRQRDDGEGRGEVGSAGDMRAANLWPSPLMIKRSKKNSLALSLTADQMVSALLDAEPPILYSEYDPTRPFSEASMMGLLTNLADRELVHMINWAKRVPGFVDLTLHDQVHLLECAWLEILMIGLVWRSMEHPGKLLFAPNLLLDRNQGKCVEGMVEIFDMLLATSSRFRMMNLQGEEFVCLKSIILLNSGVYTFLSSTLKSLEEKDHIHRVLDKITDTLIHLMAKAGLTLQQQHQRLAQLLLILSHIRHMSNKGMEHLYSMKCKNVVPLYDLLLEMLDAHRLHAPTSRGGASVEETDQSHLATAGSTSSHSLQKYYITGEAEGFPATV

Estrogen receptor [4] = biological target: T3, Estrogen receptor; format: functional; remark: listed apart in the source
[5] = biological target: T4, Peroxisome proliferator-activated receptor gamma (Homo sapiens, UniProt P37231); format: functional
T4 sequence (P37231 whole entry): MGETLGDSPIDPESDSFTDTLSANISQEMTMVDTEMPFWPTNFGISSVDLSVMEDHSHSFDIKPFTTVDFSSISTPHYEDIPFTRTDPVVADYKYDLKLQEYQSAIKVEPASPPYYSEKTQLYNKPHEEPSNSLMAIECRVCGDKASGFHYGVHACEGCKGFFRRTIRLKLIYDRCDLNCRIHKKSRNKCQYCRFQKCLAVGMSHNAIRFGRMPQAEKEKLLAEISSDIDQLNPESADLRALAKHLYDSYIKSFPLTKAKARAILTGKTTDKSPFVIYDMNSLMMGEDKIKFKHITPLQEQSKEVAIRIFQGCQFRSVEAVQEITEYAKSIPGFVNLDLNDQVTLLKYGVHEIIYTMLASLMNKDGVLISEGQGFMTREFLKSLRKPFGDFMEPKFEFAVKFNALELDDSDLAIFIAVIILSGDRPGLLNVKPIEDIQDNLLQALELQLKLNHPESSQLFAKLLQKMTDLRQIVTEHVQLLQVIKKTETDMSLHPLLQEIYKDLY

[6] = biological target: Beta-3 adrenergic receptor (Homo sapiens, UniProt P13945)
[7] = biological target: Voltage-dependent N-type calcium channel subunit alpha-1B (Rattus norvegicus, UniProt Q02294); format: functional
Histamine H2 receptor = Histamine H2 receptor (Homo sapiens, UniProt P25021)
[8] = biological target: Neurotensin receptor type 1 (Homo sapiens, UniProt P30989)
[9] = biological target: Gamma-aminobutyric acid receptor subunit alpha-1 (Rattus norvegicus, UniProt P62813)
D(4) dopamine receptor = biological target: T5, D(4) dopamine receptor (Homo sapiens, UniProt P21917)
T5 sequence (P21917 whole entry): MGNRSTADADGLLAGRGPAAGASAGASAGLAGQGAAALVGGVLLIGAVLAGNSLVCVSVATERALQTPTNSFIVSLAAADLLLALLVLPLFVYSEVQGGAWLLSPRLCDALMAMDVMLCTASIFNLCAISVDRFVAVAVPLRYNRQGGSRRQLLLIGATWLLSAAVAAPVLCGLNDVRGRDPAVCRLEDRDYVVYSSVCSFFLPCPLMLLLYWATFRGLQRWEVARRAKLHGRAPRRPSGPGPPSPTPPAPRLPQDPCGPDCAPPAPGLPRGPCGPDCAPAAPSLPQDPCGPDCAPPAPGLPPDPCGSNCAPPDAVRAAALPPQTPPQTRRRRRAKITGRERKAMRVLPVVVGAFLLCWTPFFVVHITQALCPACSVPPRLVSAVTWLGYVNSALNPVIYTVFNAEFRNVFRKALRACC

D(1A) dopamine receptor [10] = biological target: T6, D(1A) dopamine receptor (Homo sapiens, UniProt P21728)
[11] = biological target: T2, Gamma-aminobutyric acid receptor subunit alpha-1/alpha-2/beta-2/gamma-2; format: protein-complex assay
D(1A) dopamine receptor [12] = biological target: T6, D(1A) dopamine receptor; format: functional, cell-based
[13] = biological target: Receptor tyrosine-protein kinase erbB-2 (Homo sapiens, UniProt P04626); format: functional
Note: assay procedure not described here.

Sequence of Histamine H2 receptor (P25021 whole entry): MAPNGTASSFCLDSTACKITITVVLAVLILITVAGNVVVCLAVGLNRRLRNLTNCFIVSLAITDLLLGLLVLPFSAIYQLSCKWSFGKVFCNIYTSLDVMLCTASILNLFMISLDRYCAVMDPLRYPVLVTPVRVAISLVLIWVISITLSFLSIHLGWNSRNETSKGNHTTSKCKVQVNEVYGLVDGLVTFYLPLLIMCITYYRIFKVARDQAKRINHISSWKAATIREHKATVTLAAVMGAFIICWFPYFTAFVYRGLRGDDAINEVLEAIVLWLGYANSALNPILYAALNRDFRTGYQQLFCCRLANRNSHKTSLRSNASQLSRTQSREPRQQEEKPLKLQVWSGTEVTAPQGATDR
T6 sequence (P21728 whole entry): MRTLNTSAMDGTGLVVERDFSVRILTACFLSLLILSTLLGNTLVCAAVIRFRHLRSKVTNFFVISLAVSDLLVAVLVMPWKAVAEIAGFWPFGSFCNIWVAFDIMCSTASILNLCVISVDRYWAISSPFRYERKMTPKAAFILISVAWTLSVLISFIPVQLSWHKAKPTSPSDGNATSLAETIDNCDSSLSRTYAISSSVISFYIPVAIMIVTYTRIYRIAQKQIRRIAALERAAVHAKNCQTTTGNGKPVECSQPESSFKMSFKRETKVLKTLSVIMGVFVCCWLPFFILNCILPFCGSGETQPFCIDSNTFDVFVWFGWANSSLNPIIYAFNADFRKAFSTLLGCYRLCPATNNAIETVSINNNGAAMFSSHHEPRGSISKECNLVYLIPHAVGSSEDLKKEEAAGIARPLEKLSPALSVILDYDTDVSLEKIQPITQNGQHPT
Sequence of Mu-type opioid receptor (P35372 whole entry): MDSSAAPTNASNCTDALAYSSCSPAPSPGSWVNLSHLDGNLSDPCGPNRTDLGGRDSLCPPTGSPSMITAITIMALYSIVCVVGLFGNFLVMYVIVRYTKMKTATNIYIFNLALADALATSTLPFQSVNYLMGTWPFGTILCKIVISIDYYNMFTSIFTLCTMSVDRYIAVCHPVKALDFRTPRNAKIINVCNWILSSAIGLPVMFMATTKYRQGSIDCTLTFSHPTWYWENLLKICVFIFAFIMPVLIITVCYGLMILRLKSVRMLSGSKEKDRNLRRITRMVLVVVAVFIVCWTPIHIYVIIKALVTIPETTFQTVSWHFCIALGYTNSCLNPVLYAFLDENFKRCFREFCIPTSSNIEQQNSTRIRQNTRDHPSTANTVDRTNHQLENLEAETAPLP
Sequence of Voltage-dependent N-type calcium channel subunit alpha-1B (Q02294 whole entry): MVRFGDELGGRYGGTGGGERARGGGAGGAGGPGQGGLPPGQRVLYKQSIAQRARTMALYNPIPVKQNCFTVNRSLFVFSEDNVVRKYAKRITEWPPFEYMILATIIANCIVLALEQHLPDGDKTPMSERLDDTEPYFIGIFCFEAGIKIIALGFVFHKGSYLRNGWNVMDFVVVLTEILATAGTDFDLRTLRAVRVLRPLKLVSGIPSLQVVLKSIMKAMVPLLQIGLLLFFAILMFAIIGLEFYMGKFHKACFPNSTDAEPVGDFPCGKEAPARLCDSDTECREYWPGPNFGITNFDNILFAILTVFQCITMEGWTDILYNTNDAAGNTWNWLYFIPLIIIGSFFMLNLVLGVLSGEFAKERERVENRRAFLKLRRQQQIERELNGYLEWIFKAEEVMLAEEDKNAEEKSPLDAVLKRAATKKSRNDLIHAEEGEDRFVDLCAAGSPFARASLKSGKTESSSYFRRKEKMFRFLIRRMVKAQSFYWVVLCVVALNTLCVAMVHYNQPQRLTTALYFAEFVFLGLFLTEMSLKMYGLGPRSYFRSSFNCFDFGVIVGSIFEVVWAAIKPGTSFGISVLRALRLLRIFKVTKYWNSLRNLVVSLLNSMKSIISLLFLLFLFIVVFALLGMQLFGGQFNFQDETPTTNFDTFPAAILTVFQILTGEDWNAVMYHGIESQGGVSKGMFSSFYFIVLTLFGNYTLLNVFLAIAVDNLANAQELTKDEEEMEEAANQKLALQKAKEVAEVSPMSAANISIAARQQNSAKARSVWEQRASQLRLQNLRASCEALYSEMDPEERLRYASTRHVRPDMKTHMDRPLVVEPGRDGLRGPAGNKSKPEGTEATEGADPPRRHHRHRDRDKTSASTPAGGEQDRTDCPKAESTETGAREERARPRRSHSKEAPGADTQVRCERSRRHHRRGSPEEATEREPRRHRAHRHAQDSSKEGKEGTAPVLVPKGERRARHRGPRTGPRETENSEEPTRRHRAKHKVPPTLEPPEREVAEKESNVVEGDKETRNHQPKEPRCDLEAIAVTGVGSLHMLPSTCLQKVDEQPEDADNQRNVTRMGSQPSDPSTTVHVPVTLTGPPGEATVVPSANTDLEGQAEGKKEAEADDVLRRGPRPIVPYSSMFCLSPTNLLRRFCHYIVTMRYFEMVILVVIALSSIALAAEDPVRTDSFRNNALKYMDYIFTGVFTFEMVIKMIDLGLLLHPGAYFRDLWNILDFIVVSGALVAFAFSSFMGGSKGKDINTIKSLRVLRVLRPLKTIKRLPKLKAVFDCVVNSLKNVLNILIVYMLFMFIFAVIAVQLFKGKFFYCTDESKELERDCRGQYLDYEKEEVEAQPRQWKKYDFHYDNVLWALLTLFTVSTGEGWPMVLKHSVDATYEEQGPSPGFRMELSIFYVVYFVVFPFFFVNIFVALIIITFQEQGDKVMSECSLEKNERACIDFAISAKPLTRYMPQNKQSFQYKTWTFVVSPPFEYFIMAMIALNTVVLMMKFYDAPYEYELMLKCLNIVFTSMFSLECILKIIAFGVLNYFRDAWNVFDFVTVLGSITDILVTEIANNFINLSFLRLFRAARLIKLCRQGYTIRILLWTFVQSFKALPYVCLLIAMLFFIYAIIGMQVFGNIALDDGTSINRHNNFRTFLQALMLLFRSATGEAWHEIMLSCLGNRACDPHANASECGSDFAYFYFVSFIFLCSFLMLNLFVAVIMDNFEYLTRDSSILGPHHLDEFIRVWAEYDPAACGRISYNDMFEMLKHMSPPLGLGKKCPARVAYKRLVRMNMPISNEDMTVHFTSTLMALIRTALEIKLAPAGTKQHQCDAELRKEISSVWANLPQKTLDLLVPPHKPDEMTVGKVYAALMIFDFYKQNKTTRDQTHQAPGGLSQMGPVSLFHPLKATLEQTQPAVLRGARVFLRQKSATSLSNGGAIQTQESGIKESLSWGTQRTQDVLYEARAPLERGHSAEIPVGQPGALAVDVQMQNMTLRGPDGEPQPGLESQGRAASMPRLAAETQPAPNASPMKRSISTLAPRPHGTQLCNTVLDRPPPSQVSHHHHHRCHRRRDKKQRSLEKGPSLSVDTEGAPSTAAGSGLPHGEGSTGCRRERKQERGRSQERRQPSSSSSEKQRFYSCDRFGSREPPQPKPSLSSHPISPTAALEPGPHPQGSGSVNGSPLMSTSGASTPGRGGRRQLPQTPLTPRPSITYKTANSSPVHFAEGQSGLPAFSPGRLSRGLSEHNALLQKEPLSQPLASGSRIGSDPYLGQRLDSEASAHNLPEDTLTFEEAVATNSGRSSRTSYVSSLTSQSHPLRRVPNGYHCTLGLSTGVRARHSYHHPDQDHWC
Sequence of Beta-3 adrenergic receptor (P13945 whole entry): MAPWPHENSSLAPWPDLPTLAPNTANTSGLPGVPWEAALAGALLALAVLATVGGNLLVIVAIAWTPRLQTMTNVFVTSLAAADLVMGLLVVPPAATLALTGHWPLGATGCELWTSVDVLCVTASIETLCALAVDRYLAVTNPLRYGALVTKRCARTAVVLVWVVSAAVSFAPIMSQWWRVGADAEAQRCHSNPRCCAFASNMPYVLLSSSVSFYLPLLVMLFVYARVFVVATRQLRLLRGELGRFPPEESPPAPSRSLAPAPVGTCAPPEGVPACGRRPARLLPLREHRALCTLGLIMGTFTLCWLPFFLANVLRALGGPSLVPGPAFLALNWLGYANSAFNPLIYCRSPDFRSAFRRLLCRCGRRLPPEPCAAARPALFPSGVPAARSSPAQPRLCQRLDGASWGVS
Sequence of Neurotensin receptor type 1 (P30989 whole entry): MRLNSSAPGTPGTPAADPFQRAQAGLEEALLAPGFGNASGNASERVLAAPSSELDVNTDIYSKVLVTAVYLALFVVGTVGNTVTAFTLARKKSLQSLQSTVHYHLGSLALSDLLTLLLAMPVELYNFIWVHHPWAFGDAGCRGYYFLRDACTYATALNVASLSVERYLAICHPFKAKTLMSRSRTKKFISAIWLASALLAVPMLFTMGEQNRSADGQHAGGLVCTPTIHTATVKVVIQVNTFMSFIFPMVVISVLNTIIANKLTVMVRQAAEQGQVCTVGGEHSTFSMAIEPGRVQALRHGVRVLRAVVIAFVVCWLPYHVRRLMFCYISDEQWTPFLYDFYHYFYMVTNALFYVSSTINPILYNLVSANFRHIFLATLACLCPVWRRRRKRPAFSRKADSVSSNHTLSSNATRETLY
Sequence of Gamma-aminobutyric acid receptor subunit alpha-1 (P62813 whole entry): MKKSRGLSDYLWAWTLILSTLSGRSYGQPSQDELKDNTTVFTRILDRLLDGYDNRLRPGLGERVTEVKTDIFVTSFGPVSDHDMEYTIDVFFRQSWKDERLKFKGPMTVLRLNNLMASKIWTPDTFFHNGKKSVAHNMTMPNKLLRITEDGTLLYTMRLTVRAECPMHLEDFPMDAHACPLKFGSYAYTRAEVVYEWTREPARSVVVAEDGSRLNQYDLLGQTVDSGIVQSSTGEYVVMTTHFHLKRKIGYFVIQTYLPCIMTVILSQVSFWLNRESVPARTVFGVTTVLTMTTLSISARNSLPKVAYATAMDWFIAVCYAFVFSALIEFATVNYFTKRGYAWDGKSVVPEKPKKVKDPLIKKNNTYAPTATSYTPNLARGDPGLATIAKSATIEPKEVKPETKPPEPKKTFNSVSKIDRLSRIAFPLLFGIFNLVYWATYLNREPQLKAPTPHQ

| SMILES | AC50 [1] [µM] | AC50 [6] [µM] | AC50 [7] [µM] | AC50 (Histamine H2 receptor) [µM] | AC50 [8] [µM] | AC50 (D(4) dopamine receptor) [µM] | AC50 (D(1A) dopamine receptor [10]) [µM] | AC50 [2] [µM] | AC50 [9] [µM] | also measured |
| --- | --- | --- | --- | --- | --- | --- | --- | --- | --- | --- |
| Nc1nc(NC2CC2)c2ncn([C@H]3C=C[C@@H](CO)C3)c2n1 [ABACAVIR] | – | – | – | – | – | – | – | > 30 | – | AC50 (Mu-type opioid receptor): > 30 µM |
| O=C1Nc2ccc(Cl)cc2[C@@](C#CC2CC2)(C(F)(F)F)O1 [EFAVIRENZ] | – | – | – | – | – | – | – | – | – | AC50 (Estrogen receptor [3]): > 30 µM; AC50 (Estrogen receptor [4]): > 30 µM; AC50 [5]: > 30 µM |
| COCCCN1CCC(NC(=O)c2cc(Cl)c(N)c3c2OCC3)CC1 [PRUCALOPRIDE] | – | – | – | – | – | – | – | > 30 | > 30 | AC50 [5]: > 30 µM |
| Cc1cn([C@H]2C[C@H](N=[N+]=[N-])[C@@H](CO)O2)c(=O)[nH]c1=O [ZIDOVUDINE] | > 10 | > 30 | > 10 | > 10 | > 30 | > 10 | > 10 | – | > 30 | – |
| Cc1cn([C@H]2C=C[C@@H](CO)O2)c(=O)[nH]c1=O [STAVUDINE] | > 10 | > 30 | > 10 | > 10 | > 30 | > 10 | > 10 | – | > 30 | AC50 [11]: > 30 µM |
| CS(=O)(=O)c1ccc(C2=C(c3ccccc3)C(=O)OC2)cc1 [ROFECOXIB] | > 10 | > 30 | > 10 | > 10 | > 30 | > 10 | > 10 | – | – | AC50 [11]: > 30 µM; AC50 (Mu-type opioid receptor): > 30 µM |
| C[C@@H](O)[C@H]1C(=O)N2C(C(=O)O)=C(S[C@@H]3CN[C@H](C(=O)N(C)C)C3)[C@H](C)[C@H]12 [MEROPENEM] | – | – | – | – | – | – | – | > 300 | – | AC50 (D(1A) dopamine receptor [12]): > 300 µM; AC50 [13]: > 300 µM; AC50 [5]: > 300 µM |
| CNC(=O)c1ccccc1Sc1ccc2c(/C=C/c3ccccn3)n[nH]c2c1 [AXITINIB] | – | – | – | – | – | – | – | > 30 | – | AC50 (D(1A) dopamine receptor [12]): > 30 µM |
| CC[C@H]1OC(=O)[C@H](C)[C@@H](O[C@H]2C[C@@](C)(OC)[C@@H](O)[C@H](C)O2)[C@H](C)[C@@H](O[C@@H]2O[C@H](C)C[C@H](N(C)C)[C@H]2O)[C@](C)(O)C[C@@H](C)CN(C)[C@H](C)[C@@H](O)[C@]1(C)O [AZITHROMYCIN] | > 10 | > 30 | > 10 | > 10 | > 30 | > 10 | > 10 | – | > 30 | – |
| O=C(Cc1ccc(-c2ccccc2)cc1)Nc1ccccn1 [DIFENPIRAMIDE] | – | – | – | – | – | – | – | > 30 | > 30 | AC50 (Mu-type opioid receptor): > 30 µM |
| CC(C)C[C@H]1C(=O)N2CCC[C@H]2[C@]2(O)O[C@](NC(=O)[C@@H]3C=C4c5cccc6[nH]c(Br)c(c56)C[C@H]4N(C)C3)(C(C)C)C(=O)N12 [BROMOCRIPTINE] | – | 18.9 | > 10 | 1.69 | > 30 | – | > 10 | > 30 | > 30 | AC50 (D(1A) dopamine receptor [12]): > 30 µM; AC50 [13]: > 30 µM; AC50 [5]: > 30 µM |
| C[C@]12CCC(=O)C=C1CC[C@@H]1[C@@H]2[C@@H](O)C[C@@]2(C)[C@H]1CC[C@]2(O)C(=O)CO [HYDROCORTISONE] | > 10 | > 30 | > 10 | > 10 | > 30 | > 10 | > 10 | – | – | – |
| CCC1=C(C)CN(C(=O)NCCc2ccc(S(=O)(=O)NC(=O)N[C@H]3CC[C@H](C)CC3)cc2)C1=O [GLIMEPIRIDE] | – | – | – | – | – | – | – | – | > 30 | AC50 [11]: > 30 µM |
| CC(=O)Nc1ccc(O)cc1 [ACETAMINOPHEN] | – | – | – | – | – | – | – | > 30 | – | AC50 [11]: > 30 µM |
| Clc1ccc2nsnc2c1NC1=NCCN1 [TIZANIDINE] | – | > 30 | > 10 | > 10 | > 30 | – | > 10 | – | – | AC50 (Mu-type opioid receptor): > 30 µM |
| CO[C@H]1C[C@@H]2CC[C@@H](C)[C@@](O)(O2)C(=O)C(=O)N2CCCC[C@H]2C(=O)O[C@H]([C@H](C)C[C@@H]2CC[C@@H](O)[C@H](OC)C2)CC(=O)[C@H](C)/C=C(\C)[C@@H](O)[C@@H](OC)C(=O)[C@H](C)C[C@H](C)/C=C/C=C/C=C/1C [SIROLIMUS] | – | 23.8 | > 10 | – | > 30 | – | – | – | > 30 | – |

Continued, in another order:

| AC50 [1] [µM] | AC50 [6] [µM] | AC50 [7] [µM] | AC50 (Histamine H2 receptor) [µM] | AC50 [8] [µM] | AC50 (D(4) dopamine receptor) [µM] | AC50 (D(1A) dopamine receptor [10]) [µM] | SMILES | AC50 [2] [µM] | AC50 [9] [µM] | also measured |
| --- | --- | --- | --- | --- | --- | --- | --- | --- | --- | --- |
| 13 | – | – | – | – | – | – | COc1ccccc1OCC(O)CN1CCN(CC(=O)Nc2c(C)cccc2C)CC1 (configuration not stated) [RANOLAZINE] | – | – | AC50 (Mu-type opioid receptor): > 30 µM |
| – | 20.8 | > 10 | 3.77 | > 30 | – | – | CCCN1C[C@H](CSC)C[C@@H]2c3cccc4[nH]cc(c34)C[C@H]21 [PERGOLIDE] | > 30 | – | AC50 (Estrogen receptor [3]): > 30 µM; AC50 (Estrogen receptor [4]): > 30 µM; AC50 [5]: > 30 µM |
| > 10 | > 30 | > 10 | > 10 | > 30 | > 10 | > 10 | CCOC(=O)[C@H](CCc1ccccc1)N[C@@H](C)C(=O)N1[C@H](C(=O)O)C[C@@H]2CCC[C@@H]21 | – | – | – |
| > 10 | > 30 | > 10 | 0.412 | > 30 | > 10 | > 10 | CN(C)CCC(c1ccc(Cl)cc1)c1ccccn1 (configuration not stated) [CHLORPHENIRAMINE] | – | – | – |
| > 10 | > 30 | > 10 | > 10 | > 30 | > 10 | – | CC1=C(C(=O)O)N2C(=O)[C@@H](NC(=O)[C@H](N)c3ccccc3)[C@H]2SC1 [CEPHALEXIN ANHYDROUS] | – | – | – |
| > 10 | 5.2 | > 10 | > 10 | > 30 | > 10 | > 10 | Cc1ccc(-c2cc(C(F)(F)F)nn2-c2ccc(S(N)(=O)=O)cc2)cc1 [CELECOXIB] | – | – | – |
| > 10 | > 30 | > 10 | > 10 | > 30 | > 10 | > 10 | CCC(C)n1ncn(-c2ccc(N3CCN(c4ccc(OCC5COC(Cn6cncn6)(c6ccc(Cl)cc6Cl)O5)cc4)CC3)cc2)c1=O (configuration not stated) [ITRACONAZOLE] | – | – | AC50 (Mu-type opioid receptor): > 30 µM |
